Reference: PMC7660650, “Chemical Starting Matter for HNF4α Ligand Discovery and Chemogenomics” (International Journal of Molecular Sciences, 2020)
“And” between values parts separate entries of the source, which are not always exact repeats. Equal values may be shown once.

target: T1, Gal4-HNF4α (human HNF4α LBD) (Homo sapiens, UniProt P41235); test: Hybrid Gal4-HNF4α reporter gene assay in transiently transfected HEK293T cells; assay type: cell-based; conditions: not given
T1 construct: uniprot entry: P41235-1, residues 142-377; expressed in transfected cells; host or cells: HEK293T
T1 sequence (P41235 142-377): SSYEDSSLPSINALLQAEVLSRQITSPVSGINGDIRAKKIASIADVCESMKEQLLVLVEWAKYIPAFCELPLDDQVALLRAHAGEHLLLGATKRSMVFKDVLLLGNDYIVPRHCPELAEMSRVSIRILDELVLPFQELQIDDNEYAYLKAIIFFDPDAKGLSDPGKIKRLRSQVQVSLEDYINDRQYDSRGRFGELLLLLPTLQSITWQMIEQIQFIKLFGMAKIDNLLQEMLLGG

Structure (SMILES)	HNF4a-screening_activity_(mean_of_n=2)
c1ccc(C2COCCN2)cc1 (centres unmarked) [Prestw-Frag-3705, C1COCC(N1)c1ccccc1]	0.9945

same assay, conditions: Table S1, primary screening, 50 µM

Structure (SMILES)	HNF4a-screening_activity_(mean_of_n=2)
O=C1COCCN1 [Prestw-Frag-3463, O=C1COCCN1]	1.252
Nc1cnc2ccccc2n1 [Prestw-Frag-3679, Nc1cnc2ccccc2n1]	0.8882
Cc1nnc(N)s1 [Prestw-Frag-1161, Cc1nnc(N)s1]	1.123
NCCc1c[nH]c2ccc(O)cc12 [Prestw-Frag-1643, NCCc1c[nH]c2ccc(O)cc12]	1.007
Cc1ccccc1C(=O)Nc1ccccc1 [Prestw-Frag-3202, Cc1ccccc1C(=O)Nc1ccccc1]	1.357
OCc1ccc2c(c1)OCO2 [Prestw-Frag-3741, OCc1ccc2OCOc2c1]	1.114
CCOc1ccccc1O [Prestw-Frag-2995, CCOc1ccccc1O]	0.8201
CCOC(=O)C1c2ccccc2Oc2ccccc21 [Prestw-Frag-1348, CCOC(=O)C1c2ccccc2Oc2ccccc12]	0.8228
c1ccc2c3c([nH]c2c1)CNCC3 [Prestw-Frag-1014, C1Cc2c(CN1)[nH]c1ccccc21]	0.999 and 1.943
COc1ccc(CNc2ncccn2)cc1 [Prestw-Frag-1358, COc1ccc(CNc2ncccn2)cc1]	0.8945 and 1.199
COc1cc(N)ncn1 [Prestw-Frag-1154, COc1cc(N)ncn1]	1.214
c1ccc(-n2ccnc2)cc1 [Prestw-Frag-3744, c1cn(cn1)-c1ccccc1]	1.014
c1cncc(CN2CCNCC2)c1 [Prestw-Frag-3722, C(N1CCNCC1)c1cccnc1]	0.9979
c1ccc(C2CCCNCC2)cc1 (centres unmarked) [Prestw-Frag-3712, C1CNCCC(C1)c1ccccc1]	1.122
CCC1=C(C)CN(C(=O)NCCc2ccccc2)C1=O [Prestw-Frag-1075, CCC1=C(C)CN(C(=O)NCCc2ccccc2)C1=O]	1.214
Nc1cccc(C(F)(F)F)c1 [Prestw-Frag-1322, Nc1cccc(c1)C(F)(F)F]	0.9015
NCC1(c2ccccc2)CC1 [Prestw-Frag-3751, NCC1(CC1)c1ccccc1]	0.9761
OCCc1ccc(Cl)cc1 [Prestw-Frag-3062, OCCc1ccc(Cl)cc1]	0.9659
COc1cc2c(cc1OC)CN(C)CC2 [Prestw-Frag-1275, COc1cc2CCN(C)Cc2cc1OC]	0.9717 and 0.8575
Nc1ncc([N+](=O)[O-])s1 [Prestw-Frag-3324, Nc1ncc(s1)[N+]([O-])=O]	0.8744
Cc1ccc(S(=O)(=O)NC(N)=O)cc1 [Prestw-Frag-1667, Cc1ccc(cc1)S(=O)(=O)NC(N)=O]	1.077
O=C1CCc2ccccc2N1 [Prestw-Frag-2464, O=C1CCc2ccccc2N1]	1.314

Structure (SMILES)	HNF4a-screening_activity_(mean_of_n=2)
CNCC(c1ccc(OC)cc1)C1(O)CCCCC1 (centres unmarked) [Prestw-Frag-1523, CNCC(c1ccc(OC)cc1)C1(O)CCCCC1]	1.103 and 1.105
Cc1cccc(Nc2ccccc2C(=O)O)c1 [Prestw-Frag-1320, Cc1cccc(Nc2ccccc2C(O)=O)c1]	0.7946 and 1.022
Nc1cccc(O)c1 [Prestw-Frag-2826, Nc1cccc(O)c1]	1.072
O=C1c2ccccc2CN1c1ccccc1 [Prestw-Frag-2360, O=C1N(Cc2ccccc12)c1ccccc1]	1.345
CCN(CC)CCOc1ccc(C(C)=O)cc1 [Prestw-Frag-2005, CCN(CC)CCOc1ccc(cc1)C(C)=O]	1.006
NC1=NCCN1 [Prestw-Frag-1268, NC1=NCCN1]	1.024
CNCCc1ccc(OC)c(OC)c1 [Prestw-Frag-1446, CNCCc1ccc(OC)c(OC)c1]	1.187 and 1.106
NC(=O)c1nc[nH]c1N [Prestw-Frag-2268, NC(=O)c1nc[nH]c1N]	0.9961
c1ccc(N2CCNCC2)nc1 [Prestw-Frag-1110, C1CN(CCN1)c1ccccn1]	1.308
Cc1cc(=O)n(-c2ccccc2)[nH]1 [Prestw-Frag-3742, Cc1cc(=O)n([nH]1)-c1ccccc1]	0.8727
O=c1ccn([C@@H]2C[C@H](O)[C@@H](CO)O2)c(=O)[nH]1 [Prestw-Frag-2769, OC[C@H]1O[C@@H](C[C@@H]1O)n1ccc(=O)[nH]c1=O]	0.8958
CNC(=O)c1cnc(C)cn1 [Prestw-Frag-1350, CNC(=O)c1cnc(C)cn1]	0.7205 and 0.8855
CC1(c2ccccc2)NC(=O)NC1=O (centres unmarked) [Prestw-Frag-2652, CC1(NC(=O)NC1=O)c1ccccc1]	0.789
Cn1c(N)nc2ccccc21 [Prestw-Frag-3740, Cn1c(N)nc2ccccc12]	1.19
CCC(C(=O)OCCN(CC)CC)c1ccccc1 (centres unmarked) [Prestw-Frag-1343, CCC(C(=O)OCCN(CC)CC)c1ccccc1]	0.9028 and 1.004
O=C(O)CCC(=O)Nc1ccccc1 [Prestw-Frag-2383, OC(=O)CCC(=O)Nc1ccccc1]	0.9265
Cc1nccn1CCO [Prestw-Frag-1517, Cc1nccn1CCO]	0.9796 and 1.002
N#CCC(=O)N1CCCCC1 [Prestw-Frag-3730, O=C(CC#N)N1CCCCC1]	0.9277
C[N+](C)(CCO)Cc1ccccc1 [Prestw-Frag-1017, C[N+](C)(CCO)Cc1ccccc1]	0.8969 and 1.169
CC(C)(Oc1ccccc1)C(=O)O [Prestw-Frag-1053, CC(C)(Oc1ccccc1)C(O)=O]	0.9983 and 1.387
c1ccc(C(c2ccccc2)N2CCCNCC2)cc1 [Prestw-Frag-1817, C1CNCCN(C1)C(c1ccccc1)c1ccccc1]	0.7059 and 1.011
NC(=O)c1ccccc1O [Prestw-Frag-1439, NC(=O)c1ccccc1O]	1.146

Structure (SMILES)	HNF4a-screening_activity_(mean_of_n=2)
O=c1ccc2ccccc2o1 [Prestw-Frag-1000, O=c1ccc2ccccc2o1]	1.227
COc1ccc(CC(=O)O)cc1 [Prestw-Frag-2960, COc1ccc(CC(O)=O)cc1]	0.9108
FC(F)(F)c1cc[nH]n1 [Prestw-Frag-3726, FC(F)(F)c1cc[nH]n1]	0.9056
CCOC(=O)c1cccnc1 [Prestw-Frag-3382, CCOC(=O)c1cccnc1]	1.112
NCc1c(N)ccc(Cl)c1Cl [Prestw-Frag-1039, NCc1c(N)ccc(Cl)c1Cl]	1.196 and 1.044
CCCCc1nc(Cl)c(CO)[nH]1 [Prestw-Frag-3114, CCCCc1nc(Cl)c(CO)[nH]1]	0.9053
O=C(O)CCc1ccc(Cl)cc1 [Prestw-Frag-1126, OC(=O)CCc1ccc(Cl)cc1]	0.7294
c1cc2c(s1)CCNC2 [Prestw-Frag-1694, C1Cc2sccc2CN1]	1.028 and 1.127
CCc1ccc(CCO)nc1 [Prestw-Frag-2968, CCc1ccc(CCO)nc1]	1.216
CCC(=O)Nc1ncnc2[nH]cnc12 [Prestw-Frag-1047, CCC(=O)Nc1ncnc2[nH]cnc12]	0.8266 and 1.023
NC(=O)c1ccc2[nH]ccc2c1 [Prestw-Frag-3336, NC(=O)c1ccc2[nH]ccc2c1]	1.118
NS(=O)(=O)c1ccc(C(=O)O)cc1 [Prestw-Frag-2123, NS(=O)(=O)c1ccc(cc1)C(O)=O]	0.9355
COc1ccc(O)cc1O [Prestw-Frag-2499, COc1ccc(O)cc1O]	1.183
c1ccc(-n2cccn2)cc1 [Prestw-Frag-3759, c1cnn(c1)-c1ccccc1]	1.212
CC(C)NCC(O)c1ccccc1 (centres unmarked) [Prestw-Frag-2168, CC(C)NCC(O)c1ccccc1]	1.078
NNC(=O)c1ccncc1 [Prestw-Frag-1419, NNC(=O)c1ccncc1]	0.9909
CNCCN(C)C(c1ccccc1)c1ccccc1 [Prestw-Frag-3452, CNCCN(C)C(c1ccccc1)c1ccccc1]	1.151
Cc1cc(-c2ccccc2)nnc1N [Prestw-Frag-1003, Cc1cc(nnc1N)-c1ccccc1]	1.014 and 1.217
COc1ccc(Cc2ccc(OC)cc2)cc1 [Prestw-Frag-1033, COc1ccc(Cc2ccc(OC)cc2)cc1]	1.259 and 1.114
CCN(CC)CCOC(=O)C1(c2ccccc2)CCCC1 [Prestw-Frag-2774, CCN(CC)CCOC(=O)C1(CCCC1)c1ccccc1]	1.226
